“And” between values parts separate entries of the source, which are not always exact repeats. Equal values may be shown once. Bounds are passed on as bounds.

The experiment addresses Replicase polyprotein 1ab (Severe acute respiratory syndrome coronavirus 2, UniProt P0DTD1). Kind of experiment: Functional biochemical assay to identify treatments for viral infectious disease that targets SARS-COV-2 nsp3 macrodomain, whereby the mechanism of action displaces an ADP-Ribose modified peptide from the binding site. Utilizing a time-resolved fluorescence method to measure binding by reading the emitted fluorescence intensity in two wavelengths.
For `C[C@@H](C(=O)O)[C@H](NC(=O)c1ncnc2[nH]ccc12)c1ccc(Br)cc1`, the IC50 was 2850 nM and 982 nM and 1030 nM.
On to `CCNC(=O)c1cc2c(N[C@H](c3ccc4c(c3)OCCO4)C(C)C)ncnc2[nH]1`, for which the IC50 was 46800 nM.
Molecule `CC(C)[C@@H](Nc1ncnc2[nH]c(-c3cccc(-n4cnnn4)c3)cc12)c1ccc2c(c1)S(=O)(=O)CCC2` yielded an IC50 of 241 nM.
`CC(C)[C@@H](Nc1cc(-n2ccnn2)ncn1)c1ccc2c(c1)S(=O)(=O)CCC2` yielded a 50% inhibitory concentration (IC50) of over 99500 nM.
The result for `CC(C)[C@H](Nc1ncncc1-n1nccn1)c1ccc2c(c1)S(=O)(=O)CCC2` reads over 99500 nM.
Take `CC(=O)Nc1ccc(-c2cc3c(N[C@@H](c4ccc5c(c4)S(=O)(=O)CCC5)C(C)C)ncnc3[nH]2)cc1F`: the IC50 was 203 nM and 120 nM and 206 nM.
In turn, `CC(C)[C@H](Nc1nc(N)ncc1Cl)c1ccc2c(c1)S(=O)(=O)CCC2` showed an IC50 of over 99500 nM.
As to `CC(C)[C@@H](Nc1ncnc2[nH]c(-c3ccc4c(c3)C(C)(C)C(=O)N4)cc12)c1ccc2c(c1)S(=O)(=O)CCC2`, the 50% inhibitory concentration (IC50) worked out at 334 nM.
In the case of `CCNC(=O)c1cc2c(N[C@H](c3ccnc(N)c3)C(C)C)ncnc2[nH]1`, the IC50 was 1790 nM.
The result for `CC(C)[C@@H](Nc1cc(N2CCOCC2)ncn1)c1ccc2c(c1)S(=O)(=O)CCC2` reads over 99500 nM; that for `CC(C)[C@@H](Nc1ncnc2c1OCCO2)c1ccc2c(c1)S(=O)(=O)CCC2`, over 99500 nM; that for `CC(C)[C@H](Nc1ncncc1-n1ccnn1)c1ccc2c(c1)S(=O)(=O)CCC2`, over 99500 nM.
`CC(C)[C@@H](Nc1cc(N)ncn1)c1ccc2c(c1)S(=O)(=O)CCC2`: the IC50 came out at 43800 nM.
In turn, `CC(C)[C@@H](Nc1ncnc(N2CCCC2)n1)c1ccc2c(c1)S(=O)(=O)CCC2` gave an IC50 of over 99500 nM.
With `CC(C)[C@@H](Nc1ncnc2[nH]c(-c3ccc(S(N)(=O)=O)c4nsnc34)cc12)c1ccc2c(c1)S(=O)(=O)CCC2` the figure was 242 nM.
On to `CC(C)[C@@H](Nc1ncnc2[nH]c(-c3cccc4c3NC(=O)C4)cc12)c1ccc2c(c1)S(=O)(=O)CCC2`, for which the IC50 amounted to 360 nM.
The molecule `CCNC(=O)c1cc2c(NC3(c4ccc5c(c4)S(=O)(=O)CCC5)CC3)ncnc2[nH]1` showed an IC50 of 24600 nM.
On to `CC(C)[C@@H](NC(=O)Cc1ncnc2[nH]ccc12)c1ccc2c(c1)S(=O)(=O)CCC2`, for which the 50% inhibitory concentration (IC50) was over 99500 nM.
Turning to `CCNC(=O)c1cc2c(N[C@H](c3ccc4nc(NC(C)=O)sc4c3)C(C)C)ncnc2[nH]1`, the IC50 was determined as 30100 nM.
Regarding `CC(C)[C@H](Nc1ncnc2n[nH]cc12)c1ccc2c(c1)S(=O)(=O)CCC2`, the IC50 was 1560 nM and 770 nM.
As to `CC(C)[C@@H](Nc1ncnc2[nH]c(-c3cnc(N)nc3)cc12)c1ccc2c(c1)S(=O)(=O)CCC2`, the IC50 was 85 nM and 62 nM and 106 nM.
Take `CC(C)[C@@H](Nc1ncnc2[nH]c(-c3cncnc3)cc12)c1ccc2c(c1)S(=O)(=O)CCC2`: the IC50 was 478 nM and 308 nM and 538 nM.
The molecule `CCNC(=O)c1cc2c(N[C@H](c3ccccc3N(C)S(C)(=O)=O)C(C)C)ncnc2[nH]1` returned an IC50 of over 99500 nM.
Consider `CC(C)[C@H](Nc1ncnc(N2CCCC2)n1)c1ccc2c(c1)S(=O)(=O)CCC2`, for which the IC50 was over 99500 nM.
With `CC(C)[C@@H](Nc1ncnc2[nH]c(-c3cnc(N4CC(O)C4)nc3)cc12)c1ccc2c(c1)S(=O)(=O)CCC2`, the IC50 is 94 nM and 68 nM and 116 nM.
The result for `CC(C)[C@H](Nc1ncnc(O)c1Cl)c1ccc2c(c1)S(=O)(=O)CCC2` reads over 99500 nM; that for `CC(C)[C@@H](Nc1ncnc2[nH]ccc12)c1ccc2c(n1)S(=O)(=O)CCC2`, 1110 nM and 784 nM.
As for `CC(C)[C@H](Oc1cc(N)ncn1)c1ccc2c(c1)S(=O)(=O)CCC2`, the IC50 came out at 59800 nM.
In the case of `CCNC(=O)c1cc2c(N[C@H](c3cnc(C(=O)N(C)C)nc3)C(C)C)ncnc2[nH]1`, the IC50 turned out to be 47500 nM.
The result for `CC(C)[C@H](Nc1ncncc1-n1cncn1)c1ccc2c(c1)S(=O)(=O)CCC2` reads over 99500 nM; that for `CC(C)[C@@H](Nc1ncnc2[nH]c(C3=CCOC3)cc12)c1ccc2c(c1)S(=O)(=O)CCC2`, 82 nM and 114 nM and 244 nM; that for `CC(C)[C@H](Nc1ncnc2[nH]c(-c3cnn(CC(=O)N(C)C)c3)cc12)c1ccc2c(c1)OCCO2`, 235 nM and 395 nM.
As for `CC(C)[C@H](Nc1ncnc(-n2cccn2)n1)c1ccc2c(c1)S(=O)(=O)CCC2`, the IC50 is over 99500 nM.
Turning to `CC(=O)N1CCN(Cc2cccc(-c3cc4c(N[C@@H](c5ccc6c(c5)S(=O)(=O)CCC6)C(C)C)ncnc4[nH]3)c2)CC1`, the 50% inhibitory concentration (IC50) is 258 nM and 186 nM and 325 nM.
On to `CC(C)[C@@H](Nc1ncnc2[nH]c(-c3cnc4n3CCC4)cc12)c1ccc2c(c1)S(=O)(=O)CCC2`, for which the IC50 is 51 nM and 43 nM and 65 nM and 46 nM and 52 nM.
For the molecule `CC(C)[C@@H](Nc1ncnc2[nH]c(-c3ccc(S(C)(=O)=O)nc3)cc12)c1ccc2c(c1)S(=O)(=O)CCC2`, the IC50 was 49 nM and 54 nM and 94 nM and 60 nM and 69 nM.
`CC(C)[C@H](Nc1ncnc2c1CNCC2)c1ccc2c(c1)S(=O)(=O)CCC2` came in with an IC50 of over 99500 nM.
As to `CC(C)[C@@H](Nc1ncnc2[nH]c(-c3cc4c(cc3F)NC(=O)CC4)cc12)c1ccc2c(c1)S(=O)(=O)CCC2`, the IC50 is 297 nM and 189 nM and 345 nM.
`CC(C)[C@H](Nc1ncnc2c1OCCO2)c1ccc2c(c1)S(=O)(=O)CCC2`: the IC50 amounted to 38400 nM.
For `Cc1n[nH]c(C)c1-c1cc2c(N[C@@H](c3ccc4c(c3)S(=O)(=O)CCC4)C(C)C)ncnc2[nH]1`, the concentration for half-maximal inhibition (IC50) was 456 nM and 272 nM and 503 nM.
For the molecule `CC(C)[C@H](Nc1cc(N2CCNCC2)ncn1)c1ccc2c(c1)S(=O)(=O)CCC2`, the IC50 was over 99500 nM.
With `CC(C)[C@@H](Nc1ncnc2[nH]c(-c3ccc(=O)n(C)c3)cc12)c1ccc2c(c1)S(=O)(=O)CCC2` the figure was 50 nM and 46 nM and 40 nM and 48 nM and 78 nM.
Turning to `CC(C)[C@H](Nc1ncnc(N)c1Cl)c1ccc2c(c1)S(=O)(=O)CCC2`, the IC50 was 2940 nM and 1560 nM.
For the molecule `CC(C)[C@@H](Nc1ncnc2c1CCO2)c1ccc2c(c1)S(=O)(=O)CCC2`, the IC50 is 62900 nM. In other words, the double-digit micromolar range.
In turn, `CC(C)[C@H](Nc1cc(NCC(F)(F)F)ncn1)c1ccc2c(c1)S(=O)(=O)CCC2` registered an IC50 of over 99500 nM.
The result for `CC(C)[C@@H](Nc1ncnc2[nH]c(-c3ccn(C)c(=O)c3)cc12)c1ccc2c(c1)S(=O)(=O)CCC2` reads 74 nM and 63 nM and 112 nM.
Consider `CCNC(=O)c1cc2c(N[C@H](c3ccc4c(c3)NS(=O)(=O)CO4)C(C)C)ncnc2[nH]1`, for which the IC50 is 29 nM and 38 nM and 37 nM.
In turn, `CC(=O)N1[C@@H]2CC[C@H]1c1c(ncnc1N[C@@H](c1ccc3c(c1)S(=O)(=O)CCC3)C(C)C)C2` had an IC50 of over 99500 nM.
`CC(C)[C@H](Nc1cc(O)ncn1)c1ccc2c(c1)S(=O)(=O)CCC2` displayed an IC50 of over 99500 nM.
`CC(C)[C@H](Nc1cc(-n2ccnn2)ncn1)c1ccc2c(c1)S(=O)(=O)CCC2` registered an IC50 of over 99500 nM.
The result for `CC(C)[C@@H](Nc1ncnc2[nH]c(-c3cc(O)nc4ccccc34)cc12)c1ccc2c(c1)S(=O)(=O)CCC2` reads 1670 nM; that for `Cc1nc(N)c(Cl)c(N[C@H](c2ccc3c(c2)S(=O)(=O)CCC3)C(C)C)n1`, over 99500 nM; that for `CC(C)[C@@H](Nc1ncncc1Cl)c1ccc2c(c1)S(=O)(=O)CCC2`, over 99500 nM.
Regarding `CC(C)[C@H](Nc1cc(-n2cncn2)ncn1)c1ccc2c(c1)S(=O)(=O)CCC2`, the IC50 was over 99500 nM.
Consider `CCNC(=O)c1cc2c(NC3(c4ccc5c(c4)S(=O)(=O)CCC5)CCC3)ncnc2[nH]1`, for which the IC50 came to 3050 nM.
As to `CC(C)[C@H](Nc1ncnc2[nH]c(-c3cnn(CC(=O)N(C)C)c3)cc12)c1ccc2c(c1)S(=O)(=O)CCC2`, the IC50 is 5560 nM and 4260 nM.
The result for `CC(C)[C@H](Nc1ncnc(N)c1F)c1ccc2c(c1)S(=O)(=O)CCC2` reads over 99500 nM; that for `CNc1ncnc(N[C@H](c2ccc3c(c2)S(=O)(=O)CCC3)C(C)C)c1Cl`, over 99500 nM; that for `CC(C)[C@@H](Oc1cc(N)ncn1)c1ccc2c(c1)S(=O)(=O)CCC2`, 67400 nM.
For `CC(C)[C@@H](Nc1ncnc2[nH]c(-c3cnn(C)c3)cc12)c1ccc2c(c1)S(=O)(=O)CCO2`, the IC50 was 43 nM and 51 nM.
Consider `CC(C)[C@@H](Nc1ncnc2[nH]c(-c3cnc4c(c3)nnn4C)cc12)c1ccc2c(c1)S(=O)(=O)CCC2`, for which the IC50 is 241 nM and 131 nM and 349 nM.
In turn, `CC(C)[C@H](NC(=O)c1ncnc2[nH]ccc12)c1ccc2c(c1)S(=O)(=O)CCC2` returned an IC50 of over 99500 nM.
For `CC(C)[C@@H](Nc1ncnc2[nH]c(-c3ccn4cnnc4c3)cc12)c1ccc2c(c1)S(=O)(=O)CCC2`, the IC50 is 93 nM and 73 nM and 126 nM.
With `CC(C)[C@@H](Nc1cc(-n2nccn2)ncn1)c1ccc2c(c1)S(=O)(=O)CCC2` the figure was over 99500 nM.
`CC(C)[C@@H](Nc1cc(N2CCC[C@H]2C(=O)O)ncn1)c1ccc2c(c1)S(=O)(=O)CCC2`: the IC50 is over 99500 nM.
The result for `CC(C)[C@@H](Nc1ncnc2[nH]c(-c3cn[nH]c3)cc12)c1ccc2c(c1)S(=O)(=O)CCC2` reads 63 nM and 52 nM and 85 nM and 58 nM and 60 nM.
With `Cc1nnn(C)c1-c1cc2c(N[C@@H](c3ccc4c(c3)S(=O)(=O)CCC4)C(C)C)ncnc2[nH]1` the figure was 414 nM and 419 nM; with `CC(C)[C@H](Nc1cc(-n2nccn2)ncn1)c1ccc2c(c1)S(=O)(=O)CCC2`, over 99500 nM.
The result for `CC(C)[C@H](Nc1ncnc2c1CCO2)c1ccc2c(c1)S(=O)(=O)CCC2` reads over 99500 nM; that for `CC(C)[C@@H](Nc1ncnc2c1CNCC2)c1ccc2c(c1)S(=O)(=O)CCC2`, over 99500 nM; that for `CC(C)[C@@H](Nc1cc(NCC(F)(F)F)ncn1)c1ccc2c(c1)S(=O)(=O)CCC2`, 2240 nM.
`CC(C)[C@@H](NC(=O)c1ncnc2[nH]ccc12)c1ccc2c(c1)S(=O)(=O)CCC2` had an IC50 of over 99500 nM.
`CC(C)[C@H](Nc1cccc2nc[nH]c(=O)c12)c1ccc2c(c1)S(=O)(=O)CCC2`: the concentration for half-maximal inhibition (IC50) was over 99500 nM.
`COc1ccc([C@H](CC(=O)O)NC(=O)c2ncnc3[nH]ccc23)cc1`: the IC50 stood at 1440 nM.
`CC(C)[C@@H](Nc1cc(N2CCNCC2)ncn1)c1ccc2c(c1)S(=O)(=O)CCC2` came in with an IC50 of over 99500 nM.
Molecule `CC(C)[C@@H](Nc1ccncn1)c1ccc2c(c1)S(=O)(=O)CCC2` had a half-maximal inhibitory concentration (IC50) of over 99500 nM.
`CC(C)[C@H](Nc1cc(N2CCOCC2)ncn1)c1ccc2c(c1)S(=O)(=O)CCC2`: the IC50 was over 99500 nM.
With `CC(C)[C@@H](Nc1ncnc2[nH]c(-c3ccnc(OCCN(C)C)c3)cc12)c1ccc2c(c1)S(=O)(=O)CCC2` the figure was 114 nM; with `CC(C)[C@H](Nc1ncncc1Cl)c1ccc2c(c1)S(=O)(=O)CCC2`, over 99500 nM.

The values are drawn from ChEMBL document CHEMBL5441456, “ASAP - SARS-CoV-2 nsp3 macrodomain dose response” (2024).
